The source of these data is US9493466B2, “Treatment of cancer with TOR kinase inhibitors” (Signal Pharmaceuticals, LLC, priority 2011, dated 2016).

Where two headings read alike, the source gives them in different places.

One assay concerns NHL cell lines. Put plainly: Apoptosis assay for NHL lines (panel statement). The class given is cell-based. Particulars: multiple NHL cell lines in vitro; FIG. 2. Here is the method: Apoptosis Assay for NHL Lines. Prior to testing, cells were grown and expanded in culture flasks to provide sufficient amounts of starting material. Cells were then diluted to their desired densities and added directly to compound-spotted 384-well plates. Cells were allowed to grow for 24 hours in 5% CO2 at 37° C. The apoptotic response was assessed by quantifying the activities of caspase 3 and caspase 7 (Caspase 3/7-Glo) in treated cells and control cells at the 24-hour time point. All data was normalized and represented as a value relative to the DMSO-treated cells. Results were then expressed as CalX, which is the minimum compound concentration required to double the levels of caspase 3/7 relative to those of the DMSO-treated cells during their treatment period.

For another assay, the system named is U87MG-Luc cells. The experiment in a line: U87MG intracranial glioblastoma model. It is filed as in vivo, Nude mice. The following applies: up to 6 weeks. Here is the method:
U87MG Intracranial Glioblastoma Model (Compound 1). An intracranial glioblastoma study was conducted with U87MG cells transfected with luciferase (U87-MG-Luc). Nude mice were inoculated intracranially with U87MG-Luc cells into the brain. Following inoculation of animals, the tumors were allowed to grow for 7 days. On day 7 following tumor cell inoculation, the mice were imaged using Xenogen imaging system. The mice having tumors with an average flux ranging between 6.29×10^7 and 1.59×10^8 photons/sec were pooled together and randomized into various treatment groups. Compound 1 was formulated in 0.5% CMC and 0.25% Tween 80 in water (as a suspension). The animals were orally administered vehicle (CMC-Tween) or Compound 1 once daily (QD) for up to 6 weeks. Doses of Compound 1 ranged between 2.5 and 20 mg/kg. The positive control Temozolomide (10 mg/kg, QD) was administered via intra peritoneal (IP) route. Temozolomide was formulated in 5% N-methylpyrrolidone, 45% PEG400 and 50% saline. The animals were imaged for bioluminescence once a week using Xenogen imaging system and monitored for survival. Statistical analysis was performed using a log-rank test between Compound-treated and vehicle-treated control groups.
U87MG Intracranial Glioblastoma Model (Compound 2). […] The animals were imaged for bioluminescence once a week using Xenogen imaging system and monitored for survival. […]

Another assay relates to U266. The experiment in a line: Cell proliferation and viability assay for MM lines. The following applies: U266, 5 days, 7AAD FACS. The class given is cell-based. As to the method:
(§1) Cell Proliferation and Viability Assay for MM Lines. Prior to use, cells were washed and maintained in medium for 5 days. Cells were seeded out at a density of 0.3×10^6 cells/mL in a 12-well plate and treated with Compound 1 or Compound 2 for 5 days. 7AAD detection fluorescence-activated cell sorting (FACS) flow cytometry was used in the analysis.

The test system of another assay is OPM2. The assay is described as above. The following applies: OPM2, 5 days, 7AAD FACS. It is filed as cell-based. As to the method:
as §1

Another assay relates to MM1.S. Described as above. It is filed as cell-based. Particulars: 5 days, 7AAD FACS. Here is the method:
as §1

In a further assay the test system is KMS34. The description is as above. The class given is cell-based. Particulars: KMS34, 5 days, 7AAD FACS. As to the method:
as §1

For a further assay, the system named is LP-1. Described as above. The class given is cell-based. The following applies: LP-1, 5 days, 7AAD FACS. Here is the method:
as §1

Another assay deals with CAG. Described as above. The class given is cell-based. The following applies: 5 days, 7AAD FACS. As to the method:
as §1

The subject of the next assay is DF15. The description is as above. The class given is cell-based. The following applies: DF15, 5 days, 7AAD FACS. As to the method: as §1
The subject of the next assay is H929. The description is as above. The following applies: H929, 5 days, 7AAD FACS. It is filed as cell-based. As to the method:
as §1

The subject of a further assay is RPMI. The description is as above. The class given is cell-based. The following applies: 5 days, 7AAD FACS. Here is the method: as §1
Where [1] appears, read: Homo sapiens, 120 h, read-out: IC50, Viability.
Where [2] appears, read: 120 h, read-out: IC50, Proliferation.
[3] abbreviates: 120 h, read-out: IC50, Viability.

Regarding `CO[C@H]1CC[C@H](N2C(=O)CNc3ncc(-c4ccc(C(C)(C)O)nc4)nc32)CC1` [Compound 1, 7-(6-(2-hydroxypropan-2-yl)pyridin-3-yl)-1-((1r,4r)-4-methoxycyclohexyl)-3,4-dihydropyrazino-[2,3-b]pyrazin-2(1H)-one], in the assay with NHL cell lines, the apoptosis induction entry was “induce apoptosis”. For the same molecule, the survival entry with U87MG-Luc cells (2.5 to 20 mg/kg QD oral, FIG. 14) was “significantly prolonged the life”. The IC50 with U266 (read-out: IC50, Proliferation) was determined as 560 nM; with OPM2 (read-out: IC50, Proliferation), 330 nM; in the assay with OPM2 (read-out: IC50, Viability), 600 nM; with MM1.S (read-out: IC50, Proliferation), 440 nM; in the assay with MM1.S (read-out: IC50, Viability), 1010 nM; in the assay on KMS34 (read-out: IC50, Proliferation), 100 nM. Besides, the IC50 in the assay with KMS34 (read-out: IC50, Viability) was 420 nM; with LP-1 (read-out: IC50, Proliferation) it was 220 nM; with CAG (read-out: IC50, Proliferation) it was 800 nM; in the assay on CAG (read-out: IC50, Viability) it was 2600 nM; with DF15 (read-out: IC50, Proliferation), 100 nM; with DF15 (read-out: IC50, Viability) it was 850 nM. The IC50 in the assay with H929 (read-out: IC50, Proliferation) amounted to 190 nM; with H929 (read-out: IC50, Viability), 730 nM; in the assay with RPMI (read-out: IC50, Proliferation), 170 nM; with RPMI (read-out: IC50, Viability) it was 1100 nM.

With `CCN1C(=O)CNc2ncc(-c3ccc(-c4nc[nH]n4)nc3C)nc21` [Compound 2, 1-ethyl-7-(2-methyl-6-(1H-1,2,4-triazol-3-yl)pyridin-3-yl)-3,4-dihydropyrazino[2,3-b]pyrazin-2(1H)-one], in the assay on NHL cell lines, the apoptosis induction entry is recorded as “induce apoptosis”. Also, the survival entry in the assay on U87MG-Luc cells (0.5 to 5 mg/kg QD oral, FIG. 16) was “significantly prolonged the life”. Moreover, the IC50 worked out at 320 nM in the assay on U266 (Homo sapiens, U-266, 120 h, read-out: IC50, Proliferation); 4290 nM in the assay on U266 (Homo sapiens, U-266, 120 h, read-out: IC50, Viability); 370 nM with OPM2 (Homo sapiens, OPM-2, 120 h, read-out: IC50, Proliferation); 510 nM in the assay on OPM2 (Homo sapiens, OPM-2, 120 h, read-out: IC50, Viability); 850 nM with MM1.S (setting [1]); 70 nM with KMS34 (KMS-34, 120 h, read-out: IC50, Proliferation). Besides, the IC50 with KMS34 (KMS-34, 120 h, read-out: IC50, Viability) was 120 nM; in the assay on LP-1 (Homo sapiens, 120 h, read-out: IC50, Proliferation), 160 nM; in the assay with LP-1 (setting [1]), 830 nM; in the assay on CAG (setting [2]) it was 410 nM; in the assay on CAG (setting [3]), 1500 nM; in the assay with DF15 (setting [2]), 50 nM. Moreover, the IC50 stood at 570 nM in the assay with DF15 (setting [3]); 130 nM in the assay on H929 (Homo sapiens, NCI-H929, 120 h, read-out: IC50, Proliferation); 400 nM in the assay on H929 (Homo sapiens, NCI-H929, 120 h, read-out: IC50, Viability); 150 nM in the assay with RPMI (setting [2]); 450 nM in the assay on RPMI (setting [3]).
